Measured values: ChEMBL document CHEMBL1154501, “2/4-Substituted-9-fluorenones and their O-glucosides as potential immunomodulators and anti-herpes simplex virus-2 agents. Part 5” (Eur J Med Chem, 2008)

Key:
PBMC [1] = experiment: Cytotoxicity against human PBMC at 60 ug/mL after 48 hrs by MTT assay; type: cell-based
PBMC [2] = experiment: Cytotoxicity against human PBMC at 40 ug/mL after 48 hrs by MTT assay; type: cell-based
PBMC [3] = experiment: Cytotoxicity against human PBMC at 20 ug/mL after 48 hrs by MTT assay; type: cell-based
Human alphaherpesvirus 2 [4] = experiment: Antiviral activity against HSV2 in human PBMC assessed as inhibition of viral replication at 20 ug/mL; type: functional
PBMC [5] = experiment: Induction of IFNalpha release in human PBMC at 20 ug/mL after 24 hrs by ELISA; type: functional
PBMC [6] = experiment: Induction of IFNalpha release in human PBMC at 20 ug/mL after 48 hrs by ELISA; type: functional
PBMC [7] = experiment: Induction of TNFalpha release in human PBMC at 20 ug/mL after 24 hrs by ELISA; type: functional
PBMC [8] = experiment: Induction of TNFalpha release in human PBMC at 20 ug/mL after 48 hrs by ELISA; type: functional
Human alphaherpesvirus 2 [9] = experiment: Antiviral activity against HSV2 in human PBMC assessed as inhibition of viral replication at 40 ug/mL; type: functional
PBMC [10] = experiment: Induction of IFNalpha release in human PBMC at 40 ug/mL after 24 hrs by ELISA; type: functional
PBMC [11] = experiment: Induction of IFNalpha release in human PBMC at 40 ug/mL after 48 hrs by ELISA; type: functional
PBMC [12] = experiment: Induction of TNFalpha release in human PBMC at 40 ug/mL after 24 hrs by ELISA; type: functional
PBMC [13] = experiment: Induction of TNFalpha release in human PBMC at 40 ug/mL after 48 hrs by ELISA; type: functional

Row | Structure (SMILES) | Activity (PBMC [1]) [%] | Activity (PBMC [2]) [%] | Activity (PBMC [3]) [%] | PFU/ml (Human alphaherpesvirus 2 [4]) | Activity (PBMC [5]) [pg/mL] | Activity (PBMC [6]) [pg/mL] | Activity (PBMC [7]) [pg/mL] | Activity (PBMC [8]) [pg/mL] | PFU/ml (Human alphaherpesvirus 2 [9]) | Activity (PBMC [10]) [pg/mL] | Activity (PBMC [11]) [pg/mL] | Activity (PBMC [12]) [pg/mL] | Activity (PBMC [13]) [pg/mL]
1 | O=C(OCCCCO[C@H]1O[C@H](CO[C@H]2O[C@H](CO[C@H]3O[C@H](CO)[C@@H](O)[C@H](O)[C@H]3O)[C@@H](O)[C@H](O)[C@H]2O)[C@@H](O)[C@H](O)[C@H]1O)c1cccc2c1-c1ccccc1C2=O | 42 | 19 | 0 | 70000 | <4.8 | 14 | <5.8 | 9 |  |  |  |  | 
2 | O=C(OCCCCO[C@@H]1O[C@H](CO)[C@@H](O[C@H]2O[C@H](CO)[C@@H](O)[C@H](O)[C@H]2O)[C@H](O)[C@H]1O)c1cccc2c1-c1ccccc1C2=O | 69 | 37 | 26 |  |  |  |  |  |  |  |  |  | 
3 | O=C(NCCO)c1ccc2c(c1)C(=O)c1ccccc1-2 | 2 | 0 | 0 | 48000 | <4.8 | 11 | <5.8 | 13 | 37000 | 9 | 29 | 14 | 36
4 | O=C(OCCO)c1cccc2c1-c1ccccc1C2=O | 14 | 6 | 0 | 58000 | <4.8 | 16 | <5.8 | 21 |  |  |  |  | 
5 | O=C(OCCCO)c1cccc2c1-c1ccccc1C2=O | 41 | 22 | 0 | 60000 | <4.8 | 8 | <5.8 | 11 |  |  |  |  | 
6 | O=C(OCCCCO)c1cccc2c1-c1ccccc1C2=O | 38 | 21 | 0 | 71000 | <4.8 | 12 | <5.8 | 6 |  |  |  |  | 
7 | O=C(OCCCCO[C@H]1O[C@H](CO)[C@@H](O)[C@H](O)[C@H]1O)c1cccc2c1-c1ccccc1C2=O | 57 | 38 | 22 |  |  |  |  |  |  |  |  |  | 
8 | O=C(OCCCCO[C@@H]1O[C@H](CO)[C@@H](O)[C@H](O)[C@H]1O)c1cccc2c1-c1ccccc1C2=O | 7 | 0 | 0 | 78000 | <4.8 | 10 | <5.8 | 18 | 36000 | <4.8 | 29 | <5.8 | 30
9 | O=C(NCCCCO)c1ccc2c(c1)C(=O)c1ccccc1-2 | 45 | 28 | 20 |  |  |  |  |  |  |  |  |  | 
10 | O=C(NCCCO)c1ccc2c(c1)C(=O)c1ccccc1-2 | 15 | 0 | 0 | 6500 | <4.8 | 7 | <5.8 | 40 | 4100 | 13 | 37 | 27 | 51
11 | O=C(NCCOCCO)c1ccc2c(c1)C(=O)c1ccccc1-2 | 4 | 0 | 0 | 5300 | <4.8 | 21 | <5.8 | 17 | 3900 | 6 | 38 | 24 | 48
12 | CC(O)CNC(=O)c1ccc2c(c1)C(=O)c1ccccc1-2 (stereo unspecified) | 5 | 0 | 0 | 6000 | <4.8 | 18 | <5.8 | 20 | 3500 | 21 | 45 | 14 | 33
13 | O=C(NCCOCCO[C@H]1O[C@H](CO)[C@@H](O)[C@H](O)[C@H]1O)c1ccc2c(c1)C(=O)c1ccccc1-2 | 16 | 0 | 0 | 60000 | <4.8 | 17 | <5.8 | 14 | 34000 | <4.8 | 31 | <5.8 | 30
14 | O=C(OCCCCO[C@@H]1O[C@H](CO[C@H]2O[C@H](CO)[C@@H](O)[C@H](O)[C@H]2O)[C@@H](O)[C@H](O)[C@H]1O)c1cccc2c1-c1ccccc1C2=O | 52 | 29 | 0 | 68000 | <4.8 | 9 | <5.8 | 15 |  |  |  |  | 
15 | O=C(NCCOCCO[C@@H]1O[C@H](CO)[C@@H](O[C@H]2O[C@H](CO)[C@@H](O)[C@H](O)[C@H]2O)[C@H](O)[C@H]1O)c1ccc2c(c1)C(=O)c1ccccc1-2 | 18 | 0 | 0 | 53000 | <4.8 | 10 | <5.8 | 18 | 32000 | <4.8 | 30 | <5.8 | 27
16 | O=C(NCCOCCO[C@@H]1O[C@H](CO)[C@@H](O)[C@H](O)[C@H]1O)c1ccc2c(c1)C(=O)c1ccccc1-2 | 6 | 0 | 0 | 49000 | <4.8 | 17 | 9 | 31 | 36000 | 8 | 31 | 13 | 39
17 | O=C(NCCOCCOC1O[C@H](COC2O[C@H](CO)[C@@H](O)[C@H](O)[C@H]2O)[C@@H](O)[C@H](O)[C@H]1O)c1ccc2c(c1)C(=O)c1ccccc1-2 (single isomer, unassigned) | 21 | 0 | 0 | 42000 | <4.8 | 14 | <5.8 | 16 | 35000 | <4.8 | 25 | <5.8 | 21
